Results as given in PMC9854762, “Antibiofilm and Anti-Quorum-Sensing Activities of Novel Pyrazole and Pyrazolo[1,5-a]pyrimidine Derivatives as Carbonic Anhydrase I and II Inhibitors: Design, Synthesis, Radiosterilization, and Molecular Docking Studies” (Antibiotics, 2023).
≈ marks a conversion by molar mass, not a printed value.

Legend:
[1] = test system: Gram-negative isolates; assay: Broth microdilution MIC/MBC, summary; assay type: cell-based
Procedure: (§1) The broth microdilution method was taken as a basis to detect the MICs of pyrazole compounds against tested clinical isolates, according to the Clinical Laboratory and Standards Institute guidelines. The broth cultures were used to prepare the bacterial inoculums, and the suspensions were adjusted to the standard 0.5 McFarland turbidity. Stock solutions of the synthesized pyrazoles were prepared in pure DMSO and further serially diluted with TS broth in the concentration range from 128 µg/mL to 0.0625 µg/mL. A well containing noninoculated TS broth, free of any antimicrobial agents, was also included to ensure the medium sterility, while Erythromycin and Amikacin served as positive controls. Bacterial growth was determined by adding 20 µL of 0.5% TTC (2,3,5-triphenyltetrazolium chloride) aqueous solution. […] All experiments were repeated three times. The bactericidal effect from each concentration of the pyrazole and pyrazolo[1,5-a]pyrimidine derivatives showing growth inhibition was further studied. For this study, a loopful of 5 µL was taken from each no-visible growth tube and streaked onto plates of TS agar.

[2] = test system: Gram-positive isolates; assay: Broth microdilution MIC/MBC, summary; assay type: cell-based
Procedure: as §1

[3] = test system: C. violaceum CV026; assay: Quorum-sensing inhibition bioassay on Soft Top agar; assay type: cell-based, Chromobacterium violaceum; conditions: CV026 biosensor strain, sub-MIC
Procedure: (§2) The anti-QS potential of the tested compounds was explored as described. Briefly, an overnight bacterial suspension of the indicator organism C. violaceum CV026 was prepared in a concentration of 10^6 CFU/mL, and an aliquot of 200 µL was seeded in 5 mm of Soft Top agar (1.3 g agar, 2.0 g tryptone, 1.0 g NaCl, and 200 mL deionized water), supplemented with 20 µL of 0.25 µg/mL C6-HSL (N-hexanoyl-L-homoserine lactone), added as an exogenous AHL source. Wells were cut in the center of the plate after incubation for 30 min and then filled with 50 µL of sub-MICs of each most-active pyrazole hybrid. DMSO was used as a negative control. The plates were incubated at 28 °C for 48 h. Inhibition of violacein production by the indicator strain around the well, indicated by the presence of a white circle surrounded by a purple halo, was considered as positive for QS interference. For further investigation to determine the anti-QS activity for the pyrazole against the biofilm-forming bacterial isolates, an in vitro screening was performed. This was carried out by inoculation of 200 µL from an O/N CV026 culture onto plates of Soft Top agar. Wells of 8 mm diameter were separately made and filled with 90 µL of each biofilm-forming bacterial isolate (10^6 CFU/mL), plus 10 µL of each active pyrazole derivative (sub-MICs). Wells containing the bacterial isolates without treatment were used as controls. The signal diffusion zone diameter produced during the bacterial growth was measured in the presence of pyrazole and pyrazolo[1,5-a]pyrimidine derivatives and compared with the zone diameter of the violacein production by CV026.

[4] = molecular target: T1, hCA-II (Homo sapiens, UniProt P00918); assay: Carbonic anhydrase isoenzyme inhibition assay; assay type: biochemical; conditions: for Ki: Lineweaver–Burk graphs
T1 construct: from tissue; host or cells: human erythrocytes (hemolysate)
Procedure: The purification of both human cytosolic CA isoforms was carried out as previously described, using a simple one-step procedure of Sepharose-4B-L-tyrosine-sulfanilamide affinity chromatography. […] The carbonic anhydrase isoenzymes’ activities were determined in accordance with the previous study. […] For the designation of the inhibition efficacy of each novel pyrazole and for the pyrazolo[1,5-a]pyrimidine derivatives on both hCA isoenzymes, an activity (%) graph was drawn. The IC50 values were obtained from activity (%) versus compounds plots. The Ki values were calculated using three concentrations for each derivative.

[5] = test system: P. aeruginosa; assay: Anti-QS activity via signal inhibition, CV026 as indicator; assay type: cell-based; conditions: P. aeruginosa 10^6 CFU/mL; sub-MICs; control 11.2 mm
Procedure: as §2

[6] = test system: S. aureus; assay: as above; assay type: cell-based; conditions: S. aureus 10^6 CFU/mL; sub-MICs; control 12.0 mm
Procedure: as §2

[7] = test system: tested isolates; assay: Broth microdilution MIC/MBC, summary; assay type: cell-based
Procedure: as §1

Structure (SMILES)	MIC [1]	MIC [2]	Concentration at which anti-QS activity (visible halo zone) was observed [3]	IC50 [4]	Ki [4]	QS signal diffusion zone [5]	QS signal diffusion zone [6]	MIC ([7]; other isolates (not S. aureus, E. coli))	MIC ([7]; S. aureus, E. faecalis, and P. aeruginosa)	MBC [2]
CCOC(=O)c1ccc(N=Nc2c(N)n[nH]c2N)cc1 [Compound 3a, Ethyl 4-((3,5-diamino-1H-pyrazol-4-yl)diazenyl)benzoate]	0.062 to 0.25 µg/mL (≈ 0.226 to 0.911 µM)	0.125 µg/mL (≈ 0.456 µM)	0.0625 µg/mL	73.2 nM	91.8 nM	7.8 mm	5.0 mm			
CCOC(=O)c1ccc(N=Nc2c(N=Cc3ccc(N(C)C)cc3)n[nH]c2N)cc1 [Compound 5a, Ethyl 4-((5-amino-3-((4-(dimethylamino)benzylidene)amino)-1H-pyrazol-4-yl)diazenyl)benzoate]			0.187 µg/mL	161 nM	144 nM	9.8 mm	7.3 mm	0.5 µg/mL (≈ 1.23 µM)		
CCOC(=O)c1ccc(N=Nc2c(N)nn3c(C)cc(C)nc23)cc1 [Compound 6, ethyl-4-((2-amino-5,7-dimethylpyrazolo[1,5-a]pyrimidin-3-yl)diazenyl)benzoate]			0.125 µg/mL	130 nM	146 nM	8.7 mm	6.5 mm		0.187 to 0.375 µg/mL (≈ 0.553 to 1.11 µM)	
CCOC(=O)c1ccc(N=Nc2c(N)nn3c(N)c(C#N)c(-c4ccc(N(C)C)cc4)nc23)cc1 [Compound 9a, Ethyl-4-((2,7-diamino-6-cyano-5-(4-(dimethylamino)phenyl)pyrazolo[1,5-a]pyrimidin-3-yl)diazenyl)benzoate]		0.25 to 0.5 µg/mL (≈ 0.532 to 1.06 µM)	0.187 µg/mL	142 nM	136 nM	9.5 mm	6.9 mm			0.125 to 0.25 µg/mL (≈ 0.266 to 0.532 µM)
CCOC(=O)c1ccc(N=Nc2c(N)nn3c(O)c(C#N)c(-c4ccc(N(C)C)cc4)nc23)cc1 [Compound 10a, Ethyl-4-((2-amino-6-cyano-5-(4-(dimethylamino)phenyl)-7-hydroxypyrazolo[1,5-a]pyrimidin-3-yl)diazenyl)benzoate]			0.0625 µg/mL	122 nM	139 nM	8.0 mm	6.2 mm			
